According to the NIST ThermoML archive (doi:10.1021/je201102x):

Test: xn = mol fraction of the nth substance listed
Details: 101 kPa, Liquid, Vibrating tube method

CCC(=O)O [propanoic acid] + CCC(C)O
mass density [kg/m3]
Details | 283.15 K | 293.15 K | 303.15 K | 313.15 K | 323.15 K | 333.15 K
x1 = 0.082 | 819.64 | 815.41 | 811.1 | 802.26 | 793.05 | 783.48
x1 = 0.1717 | 834.26 | 829.91 | 825.51 | 816.5 | 807.2 | 797.57
x1 = 0.2442 | 846.52 | 842.08 | 837.6 | 828.46 | 819.08 | 809.41
x1 = 0.32 | 859.63 | 855.12 | 850.56 | 841.3 | 831.82 | 822.11
x1 = 0.4004 | 873.99 | 869.39 | 864.76 | 855.37 | 845.79 | 836
x1 = 0.4773 | 887.98 | 883.3 | 878.59 | 869.08 | 859.4 | 849.54
x1 = 0.5609 | 903.61 | 898.85 | 894.07 | 884.41 | 874.61 | 864.65
x1 = 0.6404 | 918.81 | 913.96 | 909.09 | 899.28 | 889.36 | 879.3
x1 = 0.7186 | 934.19 | 929.25 | 924.29 | 914.32 | 904.27 | 894.07
x1 = 0.8009 | 950.85 | 945.79 | 940.74 | 930.57 | 920.34 | 910.02
x1 = 0.8776 | 966.89 | 961.72 | 956.55 | 946.17 | 935.75 | 925.26
x1 = 0.9593 | 984.54 | 979.23 | 973.9 | 963.26 | 952.61 | 941.92

CCC(C)(C)O [2-methylbutan-2-ol] + CCC(=O)O
mass density [kg/m3]
Details | 283.15 K | 293.15 K | 303.15 K | 313.15 K | 323.15 K | 333.15 K
x2 = 0.0822 | 819.84 | 815.21 | 810.53 | 801.01 | 791.2 | 781.09
x2 = 0.16 | 830.58 | 825.94 | 821.26 | 811.74 | 801.99 | 791.96
x2 = 0.2419 | 842.49 | 837.85 | 833.18 | 823.69 | 814 | 804.06
x2 = 0.3189 | 854.39 | 849.75 | 845.08 | 835.62 | 825.96 | 816.07
x2 = 0.4024 | 868.02 | 863.37 | 858.68 | 849.19 | 839.53 | 829.68
x2 = 0.4806 | 881.53 | 876.85 | 872.13 | 862.6 | 852.91 | 843.03
x2 = 0.5588 | 895.71 | 890.97 | 886.21 | 876.6 | 866.84 | 856.93
x2 = 0.6429 | 911.85 | 907.05 | 902.23 | 892.5 | 882.64 | 872.64
x2 = 0.7218 | 927.93 | 923.03 | 918.13 | 908.25 | 898.28 | 888.18
x2 = 0.785 | 941.5 | 936.52 | 931.53 | 921.51 | 911.41 | 901.2
x2 = 0.8812 | 963.57 | 958.43 | 953.3 | 942.98 | 932.62 | 922.2
x2 = 0.9561 | 982.1 | 976.8 | 971.51 | 960.92 | 950.3 | 939.64

CCC(=O)O [propanoic acid] + CC(C)CO
mass density [kg/m3]
Details | 283.15 K | 293.15 K | 303.15 K | 313.15 K | 323.15 K | 333.15 K
x1 = 0.0803 | 815.48 | 811.49 | 807.47 | 799.27 | 790.86 | 782.19
x1 = 0.1616 | 829.5 | 825.39 | 821.25 | 812.83 | 804.2 | 795.34
x1 = 0.2482 | 844.79 | 840.55 | 836.28 | 827.63 | 818.79 | 809.74
x1 = 0.3212 | 857.93 | 853.59 | 849.22 | 840.38 | 831.37 | 822.15
x1 = 0.4008 | 872.54 | 868.09 | 863.61 | 854.56 | 845.37 | 836
x1 = 0.4828 | 887.9 | 883.34 | 878.76 | 869.5 | 860.12 | 850.57
x1 = 0.5602 | 902.63 | 897.96 | 893.27 | 883.83 | 874.27 | 864.57
x1 = 0.6413 | 918.47 | 913.69 | 908.9 | 899.25 | 889.49 | 879.62
x1 = 0.7201 | 934.21 | 929.32 | 924.42 | 914.55 | 904.62 | 894.59
x1 = 0.8016 | 950.86 | 945.84 | 940.81 | 930.72 | 920.57 | 910.32
x1 = 0.8777 | 966.86 | 961.72 | 956.56 | 946.23 | 935.86 | 925.44
x1 = 0.9586 | 984.47 | 979.16 | 973.84 | 963.22 | 952.58 | 941.92

CCC(C)(C)O [2-methylbutan-2-ol] + CC(=O)O
mass density [kg/m3]
Details | 283.15 K | 293.15 K | 303.15 K | 313.15 K | 323.15 K | 333.15 K
x2 = 0.0794 | 819.64 | 814.95 | 810.22 | 800.6 | 790.72 | 780.53
x2 = 0.0827 | 820.07 | 815.38 | 810.64 | 801.02 | 791.14 | 780.94
x2 = 0.1664 | 832.07 | 827.35 | 822.59 | 812.92 | 803.02 | 792.86
x2 = 0.1672 | 832.17 | 827.45 | 822.69 | 813.02 | 803.12 | 792.96
x2 = 0.2361 | 842.73 | 838.01 | 833.24 | 823.57 | 813.68 | 803.54
x2 = 0.3176 | 856.35 | 851.61 | 846.84 | 837.15 | 827.25 | 817.14
x2 = 0.3914 | 869.87 | 865.1 | 860.3 | 850.57 | 840.64 | 830.51
x2 = 0.4798 | 887.62 | 882.8 | 877.94 | 868.11 | 858.1 | 847.89
x2 = 0.5577 | 904.94 | 900.05 | 895.12 | 885.16 | 875.04 | 864.74
x2 = 0.6427 | 925.88 | 920.88 | 915.86 | 905.72 | 895.44 | 885.01
x2 = 0.7195 | 946.94 | 941.83 | 936.71 | 926.37 | 915.92 | 905.33
x2 = 0.7999 | 971.66 | 966.42 | 961.16 | 950.58 | 939.91 | 929.13
x2 = 0.8769 | 998.52 | 993.12 | 987.72 | 976.88 | 965.96 | 954.98
x2 = 0.96 | 1031.62 | 1026.04 | 1020.47 | 1009.32 | 998.13 | 986.89

CC(=O)O [acetic acid] + CCC(C)O
mass density [kg/m3]
Details | 293.15 K | 298.15 K | 303.15 K | 313.15 K | 323.15 K | 333.15 K
x1 = 0.0822 | 819.04 | 814.82 | 810.53 | 801.69 | 792.5 | 782.93
x1 = 0.1628 | 832.16 | 827.83 | 823.44 | 814.46 | 805.17 | 795.54
x1 = 0.2395 | 845.65 | 841.23 | 836.76 | 827.62 | 818.22 | 808.51
x1 = 0.321 | 861.12 | 856.58 | 852 | 842.7 | 833.16 | 823.36
x1 = 0.3979 | 876.8 | 872.17 | 867.49 | 858.02 | 848.33 | 838.39
x1 = 0.4759 | 893.89 | 889.16 | 884.37 | 874.69 | 864.83 | 854.77
x1 = 0.5611 | 914 | 909.12 | 904.22 | 894.32 | 884.26 | 874
x1 = 0.6399 | 934.04 | 929.04 | 924.01 | 913.87 | 903.62 | 893.19
x1 = 0.7197 | 955.97 | 950.84 | 945.68 | 935.3 | 924.81 | 914.19
x1 = 0.8003 | 980.06 | 974.78 | 969.49 | 958.84 | 948.1 | 937.26
x1 = 0.8796 | 1005.8 | 1000.35 | 994.91 | 983.99 | 973.01 | 961.97
x1 = 0.9365 | 1025.67 | 1020.12 | 1014.58 | 1003.46 | 992.31 | 981.11
x1 = 0.9586 | 1033.71 | 1028.12 | 1022.54 | 1011.36 | 1000.14 | 988.87

CC(C)CO [2-methyl-1-propanol] + CC(=O)O
mass density [kg/m3]
Details | 293.15 K | 298.15 K | 303.15 K | 313.15 K | 323.15 K | 333.15 K
x2 = 0.0813 | 814.94 | 810.95 | 806.92 | 798.73 | 790.31 | 781.64
x2 = 0.1574 | 827.82 | 823.71 | 819.56 | 811.15 | 802.54 | 793.68
x2 = 0.2405 | 842.93 | 838.69 | 834.42 | 825.76 | 816.92 | 807.86
x2 = 0.319 | 858.14 | 853.78 | 849.39 | 840.5 | 831.45 | 822.19
x2 = 0.4018 | 875.36 | 870.87 | 866.35 | 857.21 | 847.92 | 838.44
x2 = 0.4803 | 892.9 | 888.27 | 883.63 | 874.24 | 864.7 | 855.01
x2 = 0.5599 | 911.99 | 907.22 | 902.44 | 892.78 | 883 | 873.07
x2 = 0.6396 | 932.48 | 927.56 | 922.63 | 912.7 | 902.65 | 892.49
x2 = 0.7199 | 954.87 | 949.79 | 944.71 | 934.47 | 924.16 | 913.72
x2 = 0.7998 | 979.04 | 973.8 | 968.56 | 958.02 | 947.4 | 936.71
x2 = 0.8786 | 1004.98 | 999.57 | 994.16 | 983.31 | 972.4 | 961.43
x2 = 0.9595 | 1033.93 | 1028.35 | 1022.77 | 1011.59 | 1000.4 | 989.16
